Laboratory results: ChEMBL document CHEMBL4616629, “Diosmin Treats Lipopolysaccharide-Induced Inflammatory Pain and Peritonitis by Blocking NF-κB Activation in Mice” (J Nat Prod, 2020)
Active and inactive are the calls of the source.

Columns and labels:
Mus musculus [1] = experiment: Antioxidant activity in Swiss mouse model of LPS-induced inflammatory pain assessed as ABTS radical scavenging activity in hind paw skin at mg/kg, po pretreated for 1 hr followed by LPS-stimulation and measured after 3 hrs by colorimetric based assay; assay type: functional, organism-based
Mus musculus [2] = experiment: Antioxidant activity in Swiss mouse model of LPS-induced inflammatory pain assessed as reduction in lipid peroxidation in hind paw skin at mg/kg, po pretreated for 1 hr followed by LPS-stimulation and measured after 3 hrs by colorimetric based TBARS assay; assay type: functional, organism-based
Mus musculus [3] = experiment: Antioxidant activity in Swiss mouse model of LPS-induced inflammatory pain assessed as decrease in superoxide production in hind paw skin at mg/kg, po pretreated for 1 hr followed by LPS-stimulation and measured after 3 hrs by colorimetric based NBT assay; assay type: functional, organism-based
Mus musculus [4] = experiment: (§1) Antiinflammatory activity against Swiss mouse model of LPS-induced peritonitis assessed as decrease in leukocyte recruitment in peritoneal cavity by measuring reduction in total leukocytes at 30 to 100 mg/kg, po pretreated for 1 hr followed by LPS-stimulation and measured after 3 hrs by light microscopic based Neubauer chamber cell counting method; assay type: functional, organism-based
Mus musculus [5] = experiment: Analgesic activity in LPS-induced Swiss mouse assessed as increase in right/left paw ratio at 30 mg/kg, po pretreated for 1 hr followed by LPS-stimulation and measured after 1 to 5 hrs by static weight bearing assay; assay type: functional, organism-based
Mus musculus [6] = experiment: Antioxidant activity in Swiss mouse model of LPS-induced inflammatory pain assessed as total ferric ion reducing activity in hind paw skin at mg/kg, po pretreated for 1 hr followed by LPS-stimulation and measured after 3 hrs by colorimetric based FRAP assay; assay type: functional, organism-based
Mus musculus [7] = experiment: Antioxidant activity in Swiss mouse model of LPS-induced inflammatory pain assessed as increase in GSH level in hind paw skin at mg/kg, po pretreated for 1 hr followed by LPS-stimulation and measured after 3 hrs by colorimetric based assay; assay type: functional, organism-based
[8] = target: Transcription factor p65 (Mus musculus) (UniProt Q04207); experiment: Inhibition of NFkappaB in Swiss mouse peritoneal exudates model of LPS-induced inflammatory pain assessed as reduction area of colocalization between phosphorylated NFkappaB p65 and DAPI at 30 mg/kg, po pretreated for 1 hr followed by LPS-stimulation and measured after 3 hrs by Alexa Fluor 647 staining based immunofluorescence assay; assay type: organism-based
Sequence of Transcription factor p65 (Mus musculus) (Q04207 whole entry): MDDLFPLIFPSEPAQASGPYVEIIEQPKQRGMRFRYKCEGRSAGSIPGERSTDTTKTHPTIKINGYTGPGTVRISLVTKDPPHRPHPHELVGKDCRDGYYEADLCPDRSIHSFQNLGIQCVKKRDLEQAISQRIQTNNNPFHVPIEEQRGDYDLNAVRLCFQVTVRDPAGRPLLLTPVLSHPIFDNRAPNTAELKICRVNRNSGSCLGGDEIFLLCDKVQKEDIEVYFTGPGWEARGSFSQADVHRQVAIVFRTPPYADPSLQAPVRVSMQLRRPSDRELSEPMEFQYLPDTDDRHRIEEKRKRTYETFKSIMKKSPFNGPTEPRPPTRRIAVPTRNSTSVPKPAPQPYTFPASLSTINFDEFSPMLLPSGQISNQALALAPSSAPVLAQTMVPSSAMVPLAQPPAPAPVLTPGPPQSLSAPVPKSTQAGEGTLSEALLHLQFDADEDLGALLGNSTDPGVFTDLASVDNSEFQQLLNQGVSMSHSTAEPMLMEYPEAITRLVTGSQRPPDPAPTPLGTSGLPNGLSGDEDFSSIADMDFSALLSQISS

Mus musculus [9] = experiment: Antiinflammatory activity against Swiss mouse model of LPS-induced inflammatory pain assessed as decrease in TNFalpha level in hind paw skin at 30 mg/kg, po pretreated for 1 hr followed by LPS-stimulation and measured after 3 hrs by ELISA; assay type: functional, organism-based
Mus musculus [10] = experiment: Antiinflammatory activity against Swiss mouse model of LPS-induced peritonitis assessed as decrease in superoxide anion production in peritoneal wash at 30 mg/kg, po pretreated for 1 hr followed by LPS-stimulation and measured after 3 hrs by NBT based spectrophotometric assay; assay type: functional, organism-based
Mus musculus [11] = experiment: Inhibition of NFkappaB in Swiss mouse peritoneal exudates model of LPS-induced inflammatory pain at 30 mg/kg, po pretreated for 1 hr followed by LPS-stimulation and measured after 3 hrs by Alexa Fluor 647 staining based immunofluorescence assay; assay type: organism-based
Mus musculus [12] = experiment: Antiinflammatory activity against Swiss mouse model of LPS-induced peritonitis assessed as decrease in NBT-positive leukocytes in peritoneal exudate at 30 mg/kg, po pretreated for 1 hr followed by LPS-stimulation and measured after 3 hrs by light microscopic based cell counting method; assay type: functional, organism-based
Mus musculus [13] = experiment: Antiinflammatory activity against Swiss mouse model of LPS-induced inflammatory pain assessed as decrease in TNFalpha level in peritoneal cavity at 30 mg/kg, po pretreated for 1 hr followed by LPS-stimulation and measured after 3 hrs by ELISA; assay type: functional, organism-based
Mus musculus [14] = experiment: Analgesic activity in Swiss mouse model of LPS-induced inflammatory pain assessed as reduction in mechanical hyperalgesia at 30 to 100 mg/kg, po pretreated for 1 hr followed by LPS-stimulation and measured after 1 to 5 hrs by Von Frey test; assay type: functional, organism-based
Mus musculus [15] = experiment: Analgesic activity in LPS-induced C57BL/6 mouse harboring LysM-eGFP assessed as decrease in neutrophil recruitment in hind paw skin by measuring fluorescence at 30 mg/kg, po pretreated for 1 hr followed by LPS-stimulation and measured after 5 hrs by confocal microscopic method; assay type: functional, organism-based
Mus musculus [16] = experiment: Antiinflammatory activity against Swiss mouse model of LPS-induced inflammatory pain assessed as decrease in IL1beta level in peritoneal cavity at 30 mg/kg, po pretreated for 1 hr followed by LPS-stimulation and measured after 3 hrs by ELISA; assay type: functional, organism-based
Mus musculus [17] = experiment: Analgesic activity in LPS-induced Swiss mouse assessed as decrease in neutrophil recruitment in hind paw skin by measuring MPO activity at 10 to 100 mg/kg, po pretreated for 1 hr followed by LPS-stimulation and measured after 5 hrs by colorimetric assay; assay type: functional, organism-based
Mus musculus [18] = experiment: Antiinflammatory activity against Swiss mouse model of LPS-induced inflammatory pain assessed as decrease in IL1beta level in hind paw skin at 30 mg/kg, po pretreated for 1 hr followed by LPS-stimulation and measured after 3 hrs by ELISA; assay type: functional, organism-based
Mus musculus [19] = experiment: Antiinflammatory activity against Swiss mouse model of LPS-induced inflammatory pain assessed as decrease in IL6 level in hind paw skin at 30 mg/kg, po pretreated for 1 hr followed by LPS-stimulation and measured after 3 hrs by ELISA; assay type: functional, organism-based
Mus musculus [20] = experiment: as §1, with “mononuclear cells” for “total leukocytes”; assay type: functional, organism-based
Mus musculus [21] = experiment: Analgesic activity in Swiss mouse model of LPS-induced inflammatory pain assessed as reduction in thermal hyperalgesia at 30 to 100 mg/kg, po pretreated for 1 hr followed by LPS-stimulation and measured after 1 to 5 hrs by hot plate technique; assay type: functional, organism-based
[22] = target: Transcription factor p65 (Mus musculus) (UniProt Q04207); experiment: Inhibition of NFkappaB in Swiss mouse peritoneal exudates model of LPS-induced inflammatory pain assessed as ratio of phosphorylated NFkappaB p65 at (Ser536 residue) to total NFkappaB p65 at 30 mg/kg, po pretreated for 1 hr followed by LPS-stimulation and measured after 3 hrs by ELISA; assay type: organism-based
Mus musculus [23] = experiment: as §1, with “polymorphonuclear” for “total leukocytes”; assay type: functional, organism-based
Mus musculus [24] = experiment: Antiinflammatory activity against Swiss mouse model of LPS-induced peritonitis assessed as decrease in total ROS level at 30 mg/kg, po pretreated for 1 hr followed by LPS-stimulation and measured after 3 hrs by H2DCF-DA staining based confocal microscopic method; assay type: functional, organism-based
Mus musculus [25] = experiment: Antiinflammatory activity against Swiss mouse model of LPS-induced inflammatory pain assessed as decrease in IL6 level in peritoneal cavity at 30 mg/kg, po pretreated for 1 hr followed by LPS-stimulation and measured after 3 hrs by ELISA; assay type: functional, organism-based

COc1ccc(-c2cc(=O)c3c(O)cc(O[C@@H]4O[C@H](CO[C@@H]5O[C@@H](C)[C@H](O)[C@@H](O)[C@H]5O)[C@@H](O)[C@H](O)[C@H]4O)cc3o2)cc1O
active: Activity (Mus musculus [1]) | Activity (Mus musculus [2]) | Activity (Mus musculus [3]) | Activity (Mus musculus [4]) | Activity (Mus musculus [5]) | Activity (Mus musculus [6]) | Activity (Mus musculus [7]) | inhibition [8] | Activity (Mus musculus [9]) | Activity (Mus musculus [10]) | inhibition (Mus musculus [11]) | Activity (Mus musculus [12]) | Activity (Mus musculus [13]) | Activity (Mus musculus [14]) | Activity (Mus musculus [15]) | Activity (Mus musculus [16]) | Activity (Mus musculus [17]) | Activity (Mus musculus [18]) | Activity (Mus musculus [19]) | Activity (Mus musculus [20]) | Activity (Mus musculus [21]) | inhibition [22] | Activity (Mus musculus [23]) | Activity (Mus musculus [24]) | Activity (Mus musculus [25])
